Where two headings read alike, the source gives them in different places.
Columns and labels:
Experiment in all cases: greenhouse post-emergence herbicidal test
IPOHE = type: in vivo, Ipomoea hederacea; set-up: key to herbicidal activity against IPOHE found: rating on a scale from 0 to 100; details: post emergence; for pest or weed control at 31.25 g/ha: 31.25 g/ha a.i.
Method in brief: (§1)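 Herbicidal activity scored on a 0 (no damage) to 100 (plants destroyed) scale, usually 20 days after water-based spraying of 1–15 cm plants grown in loamy sand at 10-25 °C or 20-35 °C depending on species. Components were applied from 10% emulsion concentrates; Colby's E=X+Y−(X·Y/100) gives the additive expectation.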

CHEAL = type: in vivo, Chenopodium album
Method in brief: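 Once 1 to 15 cm tall, potted seedlings in loamy sand received the active compounds emulsified or suspended in water. After 20 days, damage versus untreated growth was graded on a 0–100 scale, and synergy judged against Colby's additive value E.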

SASKR = type: in vivo, Salsola kali; set-up: key: scale 0 to 100
Method: The culture containers used were plastic pots containing medium loamy sand with approximately 4.6% of humus and 69.9% sand as substrate. The seeds of the test plants were sown separately for each species.
For the post-emergence treatment, the test plants were grown to a plant height of from 1 to 15 cm, depending on the plant habit, and only then treated with the active compounds which had been suspended or emulsified in water. To this end, the test plants were either sown directly, and grown in the same containers, or they were first grown separately as seedlings and transplanted into the test containers a few days prior to treatment.
Depending on the species, the plants were kept at 10-25° C. and 20-35° C., respectively.
The test period extended over 1 to 3 weeks. During this time, the plants were tended and their response to the individual treatments was evaluated 20 days after treatment except mentioned otherwise.
Evaluation was carried out using a scale from 0 to 100. 100 means no emergence of the plants, or complete destruction of at least the above-ground parts, and 0 means no damage or normal course of growth.
The respective stated components A and B, and, if appropriate, C, were formulated as a 10% by weight strength emulsion concentrate and, with addition of the amount of solvent system, introduced into the spray liquor used for applying the active compound. In the examples, the solvent used was water.
In the examples below, using the method of S. R. Colby (1967) “Calculating synergistic and antagonistic responses of herbicide combinations”, Weeds 15, p. 22 ff., the value E, which is expected if the activity of the individual active compounds is only additive, was calculated. E=X+Y−(X·Y/100)

POLCO = type: in vivo, Polygonum convolvulus; set-up: key to herbicidal activity against POLCO found: rating on a scale from 0 to 100; details: post emergence
Method in brief: as §1

[1] = 6 days after treatment, g/ha a.i.: I.1 31.25, B.96 70, mixture 31.25+70
[2] = 6 days after treatment, g/ha a.i.: I.1 31.25, B.96 140, mixture 31.25+140
[3] = 6 days after treatment, g/ha a.i.: I.1 62.5, B.96 140, mixture 62.5+140
[4] = I.1 15.6 g/ha, B.103 7.5 g/ha a.i.
[5] = a.i. g/ha: I.1 15.6, B.190 62.5, 20 days after treatment
[6] = 6 days after treatment, g/ha a.i.: I.1 62.5, naptalam 50, mixture 62.5+50

O=C(O)c1cc(C2CC2)nc2onc(C3CC3)c12 [I.1]
pest or weed control at 31.25 g/ha (IPOHE; Ipomoea hederacea, post-emergence, 480 h, read-out: herbicidal activity against IPOHE found): 75%
pest or weed control at 62.5 g/ha (IPOHE; Ipomoea hederacea, post-emergence, 480 h, 62.5 g/ha a.i., read-out: herbicidal activity against IPOHE found): 90%
pest or weed control at 31.25 g/ha (IPOHE; Ipomoea hederacea, post-emergence, 480 h, single active, read-out: herbicidal activity against IPOHE found): 55%
pest or weed control at 125 g/ha (IPOHE; Ipomoea hederacea, post-emergence, 480 h, single active, 125 g/ha a.i., read-out: herbicidal activity against IPOHE found): 95%
herbicidal activity against IPOHE found (IPOHE; 6 days after treatment, g/ha a.i.: I.1 31.25, B.96 35, mixture 31.25+35): 70
herbicidal activity against IPOHE found (IPOHE; [1]): 70
herbicidal activity against IPOHE found (IPOHE; [2]): 70
herbicidal activity against IPOHE found (IPOHE; [3]): 80
herbicidal activity against IPOHE found (IPOHE; [4]): 20
herbicidal activity against IPOHE found (IPOHE; I.1 15.62 g/ha, B.89 25 g/ha a.i.): 25
herbicidal activity against IPOHE found (IPOHE; I.1 31.25 g/ha, B.103 15 g/ha a.i.): 70
herbicidal activity against IPOHE found (IPOHE; I.1 31.25 g/ha, B.89 25 g/ha a.i.): 25
herbicidal activity against IPOHE found (IPOHE; I.1 62.5 g/ha, B.57 1 g/ha a.i.): 30
herbicidal activity against IPOHE found (IPOHE; I.1 62.5 g/ha, B.89 12.5 g/ha a.i.): 30
herbicidal activity against IPOHE found (IPOHE; I.1 62.5 g/ha, B.89 25 g/ha a.i.): 30
herbicidal activity against IPOHE found (IPOHE; [5]): 50%
herbicidal activity against IPOHE found (IPOHE; a.i. g/ha: I.1 31.25, B.190 62.5, 20 days after treatment): 65%
herbicidal activity against IPOHE found (IPOHE; application rate a.i.: I.1 62.5 g/ha, B.40 (imazethapyr) 7.5 g/ha, alone or as mixture (composition 1.40)): 95
herbicidal activity against IPOHE found (IPOHE; g/ha a.i.: I.1 31.25, B.20 2, mixture 31.25+2): 25
herbicidal activity against IPOHE found (IPOHE; g/ha a.i.: I.1 31.25, B.24 1, mixture 31.25+1): 25
herbicidal activity against CHEAL found (CHEAL; a.i. g/ha: I.1 6.9, B.67 62.5, 20 days after treatment): 0%
herbicidal activity against CHEAL found (CHEAL; [5]): 70%
herbicidal activity against CHEAL found (CHEAL; a.i. g/ha: I.1 15.6, B.67 125, 20 days after treatment): 0%
herbicidal activity against CHEAL found (CHEAL; a.i. g/ha: I.1 20.8, B.192 62.5, 20 days after treatment): 85%
herbicidal activity against CHEAL found (CHEAL; a.i. g/ha: I.1 20.8, B.67 62.5, 20 days after treatment): 85%
herbicidal activity against CHEAL found (CHEAL; a.i. g/ha: I.1 31.25, B.67 125, 20 days after treatment): 65%
herbicidal activity against CHEAL found (CHEAL; a.i. g/ha: I.1 31.25, B.69 25, 20 days after treatment): 30%
herbicidal activity against CHEAL found (CHEAL; a.i. g/ha: I.1 31.25, B.76 225, 20 days after treatment): 30%
herbicidal activity against CHEAL found (CHEAL; a.i. g/ha: I.1 62.5, B.69 25, 20 days after treatment): 60%
herbicidal activity against CHEAL found (CHEAL; a.i. g/ha: I.1 62.5, B.76 225, 20 days after treatment): 60%
herbicidal activity against CHEAL found (CHEAL; a.i. g/ha: I.1 62.5, B.82 31.25, 20 days after treatment): 60%
herbicidal activity against SASKAR found (SASKR; 31.25 g/ha a.i.): 60
herbicidal activity against SASKR found (SASKR; 31.25 g/ha a.i.): 20
herbicidal activity against SASKR found (SASKR; 6 days after treatment, g/ha a.i.: I.1 31.25, naptalam 200, mixture 31.25+200): 65
herbicidal activity against SASKR found (SASKR; [3]): 65
herbicidal activity against SASKR found (SASKR; [6]): 65
herbicidal activity against SASKR found (SASKR; 6 days after treatment, g/ha a.i.: I.1 62.5, naptalam 200, mixture 62.5+200): 65
herbicidal activity against SASKR found (SASKR; application rate a.i.: I.1 31.25 g/ha, B.84 (paraquat-dichloride) 17.5 g/ha, alone or as mixture (composition 1.84)): 10
pest or weed control at 31.25 g/ha (POLCO; Fallopia convolvulus, post-emergence, 480 h, I.1 alone 31.25 g/ha a.i., read-out: herbicidal activity against POLCO found): 0%
pest or weed control at 62.5 g/ha (POLCO; Fallopia convolvulus, post-emergence, 480 h, I.1 alone 62.5 g/ha a.i., read-out: herbicidal activity against POLCO found): 65%
pest or weed control at 125 g/ha (POLCO; Fallopia convolvulus, post-emergence, 480 h, I.1 alone 125 g/ha a.i., read-out: herbicidal activity against POLCO found): 65%
pest or weed control at 31.25 g/ha (POLCO; Fallopia convolvulus, post-emergence, 480 h, I.1 31.25 g/ha a.i., read-out: herbicidal activity against POLCO found): 20%
pest or weed control at 31.25 g/ha (POLCO; Fallopia convolvulus, post-emergence, 480 h, single active, 31.25 g/ha a.i., read-out: herbicidal activity against POLCO found): 20%
herbicidal activity against POLCO found (POLCO; [1]): 35
herbicidal activity against POLCO found (POLCO; [2]): 35
herbicidal activity against POLCO found (POLCO; 6 days after treatment, g/ha a.i.: I.1 31.25, naptalam 50, mixture 31.25+50): 35
herbicidal activity against POLCO found (POLCO; 6 days after treatment, g/ha a.i.: I.1 62.5, B.96 70, mixture 62.5+70): 70
herbicidal activity against POLCO found (POLCO; [3]): 70
herbicidal activity against POLCO found (POLCO; [6]): 70
herbicidal activity against POLCO found (POLCO; [4]): 10
herbicidal activity against POLCO found (POLCO; I.1 15.62 g/ha, B.167 62.5 g/ha a.i.): 10
herbicidal activity against POLCO found (POLCO; I.1 15.62 g/ha, B.167 125 g/ha a.i.): 10
